In PubChem BioAssay AID248 (DTP/NCI, 2004):
Several values for one entry are separate records, joined by “and”; a condition that tells them apart may be missing. Equal entries are not always repeated. Inconclusive results and toxic doses are left out. Rule as the data show it: active = T/C of 150% or more; inactive = T/C below 125%.

Tested on: L1210 leukemia ip in BDF1 mice, survival T/C
Assay: NCI In Vivo Anticancer Drug Screen. Data for tumor model L1210 Leukemia (intraperitoneal) in B6D2F1 (BDF1) mice
Details: endpoint: mean survival time, higher = longer survival
Summary of the method: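 Value reflects the ratio of survival in compound-treated mice to survival in vehicle-treated controls, with both groups carrying the same transplanted tumor.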

[1] = dose: 100.0 mg/kg/injection, schedule: Q01DX001 (ip), vehicle: carboxymethylcellulose (CMC)
[2] = dose: 200.0 mg/kg/injection, schedule: Q01DX001 (ip), vehicle: carboxymethylcellulose (CMC)
[3] = dose: 400.0 mg/kg/injection, schedule: Q01DX001 (ip), vehicle: carboxymethylcellulose (CMC)
[4] = dose: 100.0 mg/kg/injection, schedule: Q01DX001 (ip), vehicle: saline
[5] = dose: 200.0 mg/kg/injection, schedule: Q01DX001 (ip), vehicle: saline
[6] = dose: 100.0 mg/kg/injection, schedule: Q04DX002 (ip), vehicle: saline with Tween-80
[7] = dose: 100.0 mg/kg/injection, schedule: Q04DX003 (ip), vehicle: saline with Tween-80
[8] = dose: 50.0 mg/kg/injection, schedule: Q01DX009 (ip), vehicle: Klucel (hydroxypropylcellulose) (HPC)
[9] = dose: 100.0 mg/kg/injection, schedule: Q01DX009 (ip), vehicle: Klucel (hydroxypropylcellulose) (HPC)
[10] = dose: 200.0 mg/kg/injection, schedule: Q01DX009 (ip), vehicle: Klucel (hydroxypropylcellulose) (HPC)
[11] = dose: 100.0 mg/kg/injection, schedule: Q04DX003 (ip), vehicle: Klucel (hydroxypropylcellulose) (HPC)
[12] = dose: 100.0 mg/kg/injection, schedule: Q04DX003 (ip), vehicle: saline
[13] = dose: 200.0 mg/kg/injection, schedule: Q04DX003 (ip), vehicle: Klucel (hydroxypropylcellulose) (HPC)
[14] = dose: 200.0 mg/kg/injection, schedule: Q04DX003 (ip), vehicle: saline
[15] = dose: 100.0 mg/kg/injection, schedule: Q04DX002 (ip), vehicle: Klucel (hydroxypropylcellulose) (HPC)
[16] = dose: 200.0 mg/kg/injection, schedule: Q04DX002 (ip), vehicle: Klucel (hydroxypropylcellulose) (HPC)
[17] = dose: 400.0 mg/kg/injection, schedule: Q04DX002 (ip), vehicle: Klucel (hydroxypropylcellulose) (HPC)
[18] = dose: 25.0 mg/kg/injection, schedule: Q04DX003 (ip), vehicle: Klucel (hydroxypropylcellulose) (HPC)
[19] = dose: 200.0 mg/kg/injection, schedule: Q04DX003 (ip), vehicle: saline with Tween-80
[20] = dose: 400.0 mg/kg/injection, schedule: Q04DX003 (ip), vehicle: saline with Tween-80

Measured: T/C

O=[N+]([O-])c1ccc2c(ccn2C2OCC(O)C(O)C2O)c1 (configuration not stated)
inactive: dose: 25.0 mg/kg/injection, schedule: Q01DX005 (ip), vehicle: saline 94 % of control and 96 % of control | dose: 50.0 mg/kg/injection, schedule: Q01DX005 (ip), vehicle: saline 96 % of control and 92 % of control | dose: 50.0 mg/kg/injection, schedule: Q01DX009 (ip), vehicle: saline with Tween-80 98 % of control | dose: 100.0 mg/kg/injection, schedule: Q01DX005 (ip), vehicle: saline 93 % of control and 91 % of control | dose: 100.0 mg/kg/injection, schedule: Q01DX009 (ip), vehicle: saline with Tween-80 98 % of control | dose: 200.0 mg/kg/injection, schedule: Q01DX009 (ip), vehicle: saline with Tween-80 102 % of control | dose: 400.0 mg/kg/injection, schedule: Q01DX009 (ip), vehicle: saline with Tween-80 111 % of control

CSc1ccc(N=Cc2ccccc2O)cc1
inactive: [1] 93 % of control | [2] 93 % of control | [3] 98 % of control

Cc1c(-c2ccccc2Br)nc2ccccc2c1C(=O)O
inactive: [4] 96 % of control | [5] 89 % of control

CCCCN(C=S)CCCC
inactive: dose: 25.0 mg/kg/injection, schedule: Q04DX002 (ip), vehicle: saline with Tween-80 98 % of control | dose: 50.0 mg/kg/injection, schedule: Q04DX002 (ip), vehicle: saline with Tween-80 95 % of control | [6] 102 % of control | [7] 92 % of control

COc1ccc2nc3c4ccccc4scc-3c2c1
inactive: [7] 92 % of control

Nc1cc(Cl)nc(-c2ccccc2)n1
inactive: [8] 98 % of control | [9] 98 % of control | [10] 102 % of control

CCOC(=O)c1ccc(=O)[nH]c1
inactive: [9] 102 % of control | dose: 100.0 mg/kg/injection, schedule: Q01DX009 (ip), vehicle: saline 88 % of control | [11] 96 % of control | [12] 116 % of control and 100 % of control | [10] 100 % of control | dose: 200.0 mg/kg/injection, schedule: Q01DX009 (ip), vehicle: saline 96 % of control | [13] 98 % of control | [14] 101 % of control and 100 % of control | dose: 400.0 mg/kg/injection, schedule: Q01DX009 (ip), vehicle: Klucel (hydroxypropylcellulose) (HPC) 95 % of control | dose: 400.0 mg/kg/injection, schedule: Q01DX009 (ip), vehicle: saline 93 % of control | dose: 400.0 mg/kg/injection, schedule: Q04DX003 (ip), vehicle: Klucel (hydroxypropylcellulose) (HPC) 90 % of control | dose: 400.0 mg/kg/injection, schedule: Q04DX003 (ip), vehicle: saline 104 % of control and 96 % of control

CC1CCCC(C[N+](C)(C)C)C1=O (configuration not stated)
inactive: [12] 93 % of control | [14] 101 % of control

CNC(=O)c1ccc(Cl)c(S(=O)(=O)NC)c1
inactive: [15] 100 % of control | [16] 104 % of control | [17] 107 % of control

CC(C)[As](C)(=O)O
inactive: dose: 6.25 mg/kg/injection, schedule: Q04DX003 (ip), vehicle: Klucel (hydroxypropylcellulose) (HPC) 101 % of control | dose: 12.5 mg/kg/injection, schedule: Q04DX003 (ip), vehicle: Klucel (hydroxypropylcellulose) (HPC) 97 % of control | [18] 102 % of control and 103 % of control

O=C1CCS(=O)(=O)CC1
inactive: dose: 50.0 mg/kg/injection, schedule: Q04DX003 (ip), vehicle: saline with Tween-80 92 % of control | [7] 90 % of control | [19] 89 % of control

CCOC(=O)CN1CC(=O)OC(C(Cl)(Cl)Cl)C1 (configuration not stated)
inactive: [7] 98 % of control | [19] 90 % of control | [20] 93 % of control

O=c1[nH]cnc2c1ncn2CCCOc1ccccc1
inactive: [15] 91 % of control | [16] 88 % of control | [17] 88 % of control

COc1ccc(-c2cnc(C(N)=O)c(=O)[nH]2)cc1
inactive: [7] 88 % of control | [19] 95 % of control | [20] 91 % of control

CC(=O)C(C(c1ccccc1)N1CCOCC1)N1CCOCC1 (configuration not stated)
inactive: [15] 100 % of control | [7] 97 % of control | [16] 110 % of control | [19] 96 % of control | [17] 100 % of control | [20] 93 % of control

O=C(Oc1ccccc1)C(Cc1ccccc1)(Cc1ccccc1)C(=O)Oc1ccccc1
inactive: [1] 101 % of control | [2] 95 % of control | [3] 93 % of control

CC(C)=CCN(CC=C(C)C)CCC(C#N)(CCN(CC=C(C)C)CC=C(C)C)c1cccc2ccccc12
inactive: [9] 86 % of control

CC1(c2ccc(F)cc2)OC(=O)c2c1ccc1ccccc21 (configuration not stated)
inactive: [15] 101 % of control | [16] 94 % of control | [17] 101 % of control

CC(C)n1cc2cc([N+](=O)[O-])ccc2n1
inactive: [8] 91 % of control | [9] 97 % of control | [10] 97 % of control

O=C(c1ccccc1)C(O)(c1ccccc1)c1ccccc1
inactive: [15] 89 % of control | [16] 107 % of control | [17] 93 % of control

CCOC(=O)NC(=S)[S][Sb]([S]C(=S)NC(=O)OCC)[S]C(=S)Nc1ccc(S(=O)(=O)Nc2ccc(N=Nc3ccccc3)cc2)cc1
inactive: dose: 100.0 mg/kg/injection, schedule: Q01DX001 (ip), vehicle: steriod suspending solution 103 % of control | dose: 400.0 mg/kg/injection, schedule: Q01DX001 (ip), vehicle: steriod suspending solution 106 % of control

CCCCSP(=S)(Cc1ccccc1)SCCCC
inactive: [11] 95 % of control | [13] 93 % of control

CCOc1ccccc1/C=N\NC(=O)c1ccco1
inactive: [1] 106 % of control | [2] 95 % of control | [3] 104 % of control

O=c1[nH]c2ccccc2c(=O)o1
inactive: [4] 96 % of control | [5] 89 % of control | dose: 400.0 mg/kg/injection, schedule: Q01DX001 (ip), vehicle: saline 89 % of control

CCCCOC(=O)CN(C)/N=N/c1nc[nH]c1C(=O)OCC
inactive: dose: 25.0 mg/kg/injection, schedule: Q01DX001 (ip), vehicle: Klucel (hydroxypropylcellulose) (HPC) 97 % of control | [18] 99 % of control | dose: 50.0 mg/kg/injection, schedule: Q01DX001 (ip), vehicle: Klucel (hydroxypropylcellulose) (HPC) 97 % of control | dose: 50.0 mg/kg/injection, schedule: Q04DX003 (ip), vehicle: Klucel (hydroxypropylcellulose) (HPC) 96 % of control | dose: 100.0 mg/kg/injection, schedule: Q01DX001 (ip), vehicle: Klucel (hydroxypropylcellulose) (HPC) 99 % of control and 104 % of control | [11] 94 % of control

CCC(C)SC1=NC(N)=NC2=NC=NC21 (configuration not stated)
inactive: dose: 50.0 mg/kg/injection, schedule: Q04DX003 (ip), vehicle: carboxymethylcellulose (CMC) 118 % of control | dose: 100.0 mg/kg/injection, schedule: Q04DX003 (ip), vehicle: carboxymethylcellulose (CMC) 122 % of control

Cc1cccc(C)c1Nc1n[nH]c(=S)s1
inactive: [6] 102 % of control | dose: 200.0 mg/kg/injection, schedule: Q04DX002 (ip), vehicle: saline with Tween-80 105 % of control | dose: 400.0 mg/kg/injection, schedule: Q04DX002 (ip), vehicle: saline with Tween-80 105 % of control
